The test has as its system P. falciparum (New Guinean isolate D10). Kind of test: Parasitemia assay in P. falciparum infected human erythrocytes. In kind it is cell-based. The procedure: P. falciparum (New Guinean isolate D10) cultures were grown and maintained substantially as described in Trager et al. (1976) Science 193, 673-675. Human type O+ blood was obtained from healthy donors. Magainin 2 (Matsuzaki et al., 1995, supra) was made by solid phase peptide synthesis. Parasitemia assays were performed substantially as described in Pasvol et al (1978) Ann Trop Med Parasitol 72, 87-92 and Magowan et al. (1995) Blood 86, 3196-3204. […] Each group was done in triplicate and 7,500 erythrocytes were counted for each data point. […]
FIG. 1 provides a graphical representation of the data showing the inhibition of parasitemia in infected human erythrocytes over the foregoing time courses and concentrations. In the figure, ● represents data points for the untreated cells, ▪ represents data points for cells treated at 10 uM, ▴ at 25 uM, and ▾ at 50 uM.

Turning to Magainin 2, the parasitemia is, setting by setting: (10 uM magainin 2, Day 1) 0.92; (10 uM magainin 2, Day 2) 1.88; (10 uM magainin 2, Day 3) 2.40; (10 uM magainin 2, Day 4) 4.52; (25 uM magainin 2, Day 1) 0.41; (25 uM magainin 2, Day 2) 1.88. For the same substance, the parasitemia (25 uM magainin 2, Day 3) is 1.61; the parasitemia (25 uM magainin 2, Day 4) came out at 3.68; the parasitemia (50 uM magainin 2, Day 1) is given as 0.52; the parasitemia (50 uM magainin 2, Day 2) was 1.43; the parasitemia (50 uM magainin 2, Day 3) is reported as 1.96; the parasitemia (50 uM magainin 2, Day 4) turned out to be 2.87. In addition, the “inhibition of parasitemia in infected human erythrocytes” value (10, 25 and 50 uM, over the time course) was “dose and time dependent inhibitions of parasitemia”. Where the note is “P. falciparum infected blood-borne human erythrocytes, Examples 1 and 2”, the “selective lysis of infected versus non-infected erythrocytes” value is recorded as “particular effective at selectively lysing P. falciparum infected blood-borne human erythrocytes as compared with non-infected cells”.

Values taken from patent US6384015B1, “Selective lysis of malaria infected erythrocytes” (priority 1997, dated 2002).
